In US20150367034A1, “CREATION OF THREE-DIMENSIONAL SYNTHETIC TISSUE FROM PLURIPOTENT STEM CELL-DERIVED CELLS, AND OSTEOCHONDRAL REGENERATION TREATMENT USING SAID SYNTHETIC TISSUE” (OSAKA UNIVERSITY, priority 2013, published 2015):

How the values were obtained:
Synovial cells = assay: Extracellular matrix formation and collagen content (hydroxyproline) of synovial cell synthetic tissue; assay type: cell-based; conditions: pig synovial cells
Procedure: Synovial cells were collected from a knee joint of a pig (LWD ternary hybrid, 2-3 months old upon removal of cells), followed by treatment with collagenase. The cells were cultured and subcultured in a 10% fetal bovine serum+High Glucose-DMEM medium (fetal bovine serum available from HyClone, DMEM was obtained from GIBCO). It has been reported that 10th passage synovial cells still have pluripotency. Although cells of 10 or less passages were used in this production example, it is understood that cells of more than 10 passages may be used depending on the application. Autotransplantation was performed for actual human implantation, but it was necessary to secure a sufficient number of cells and to culture the cells for a short period of time so as to reduce the risk of infection or the like. Synovial cells (4.0×10^5) were cultured in 0.1-0.2 ml/cm^2 of 10% FBS-DMEM medium in a 35-mm dish, 60-mm dish, 100-mm dish, 150-mm dish, 500-m dish, 6-well culture dish, 12-well culture dish, or 24-well culture dish (BD Biosciences, cell culture dish and multiwell cell culture plate). In this case, ascorbic acid was added. […] In order to determine the collagen concentration, the collagen content was measured. […]

ES-MSCs = assay: Volume, weight and hydroxyproline of TEC from ES-MSCs with or without ascorbic acid 2-phosphate; assay type: cell-based, rabbit; conditions: 0.2 mM added versus non-added; FIG. 3
Procedure: The protocol thereof is disclosed below.
ES-MSCs were inoculated at a TEC creation concentration (1.52×10^5 cells/well) in each well of a 12 well plate to create a TEC. A medium was created by separating conventional 10% FBS-containing DMEM for TEC creation into a 0.2 mM ascorbic acid added group (n=6) and non-added group (n=6). Three of each group were used for weight/volume measurements and the rest of the three were used in hydroxyproline measurements. For hydroxyproline, the following kit was used (Hydroxyproline Assay Kit Cat#K555-100; Lot#60855, BioVision), where the measurements were taken in accordance with the protocol on the package insert.
For the TEC made from 0.125×10^6, 0.25×10^6, 0.5×10^6, 1×10^6, 2×10^6, 4×10^6, 8×10^6, or 16×10^6 cells/well in a 6 well plate which was cultured over 12 days, detached, and allowed to undergo self-contraction, the volume was measured with a plethysmometer (model TK-101CMP; UNICOM, Chiba, Japan), and the weight was measured with a scale (Ando W, Tateishi K, Katakai D, Hart D A, Higuchi C, Nakata K, et al., Tissue Eng Part A 2008:14:2041-2049). 4 samples were evaluated at each cell density. In short, a plethysmometer is a minute volume controlled measuring device that is specially designed for accurate measurement. A plethysmometer consists of Perspex cells filled with water. A transducer records a small difference in the water level caused by a change in volume. […] The weight was measured with a common scale (METTLER TOLEDO AG204, Mettler-Toledo International Inc., Max210gd=0.1 mg, METTLER TOLEDO AG204 (Mettler-Toledo International Inc.)) in a laboratory […]. Measurements were taken in accordance with the protocol on the package insert.

O=C1O[C@H]([C@@H](O)CO)C(O)=C1OP(=O)(O)O [ascorbic acid 2-phosphate]
production of collagen (amount of hydroxyproline) (Synovial cells; 0.1 mM or more added): significantly promoted
formation of an extracellular matrix (Synovial cells; added at a concentration of 0.1 mM or more): promoted
hydroxyproline generation amount of TEC (ES-MSCs): significantly increased
volume of TEC (ES-MSCs): significantly increased
weight of TEC (ES-MSCs): significantly increased
